A word on the Ki: it is the equilibrium dissociation constant of an inhibitor or competing ligand from its target. Lower therefore signals a stronger hold on the target.

Results on 28 compounds are retold here after patent US12110288B2, “MASP-2 inhibitors and methods of use” (Omeros Corporation, priority 2019, dated 2024).

The assay deals with T1, MASP-2 (CCP1-CCP2-SP) (Homo sapiens, UniProt O00187).
T1 construct: 15 μL of Enzyme MASP-2 (CCP1-CCP2-SP) in Assay Buffer
The experiment in a line: Enzymatic Assay for MASP-2. In kind it is biochemical. Particulars: fluorogenic substrate based on C2 cleavage site, room temperature, 20 mM HEPES pH 7.4. The protocol:
Enzymatic Assay for MASP-2
The MASP-2 assay utilizes a fluorogenic substrate, based on the cleavage site for its natural substrate C2. The assay is run at room temperature in an assay buffer containing 20 mM HEPES, pH 7.4, 140 mM NaCl and 0.1% Tween 20. Assay parameters are adjusted such that the assay is linear with respect to time, enzyme, and substrate concentrations. Under these optimized assays conditions, IC50 values are equivalent to Ki values, except in a few cases of “tight binding” inhibitors. Cases of “tight binding” or possible “slow binding” inhibitors are handled by the methods described in Copeland R. A. (2013) Evaluation of Enzyme Inhibitors in Drug Discovery. 2nd Ed., John Wiley and Sons, Inc., Chapters 5-7.
The MASP-2 assay protocol is carried out as follows. Test compounds are serially diluted in DMSO and then 100 nL of each dilution is transferred to the assay plate(s). 10 μL of Assay Buffer is added, followed by 15 μL of Enzyme MASP-2 (CCP1-CCP2-SP) in Assay Buffer. 15 μL of Substrate in Assay Buffer is then added and mixed to start the reactions. After 20 min at room temperature, 15 μL of a stop solution (0.1 M acetic acid) is added, mixed and the plates are read on a SpectraMax i3x Microplate Reader and exported as Excel files. Each assay plate included a “no inhibitor” (DMSO Only) control, a “no enzyme” control and a reference inhibitor control. % Activity values=100*(average test comp. fluorescence−average “no enzyme” fluorescence)/(average “DMSO only” fluorescence−average “no enzyme” fluorescence). IC50 and Ki values are very reproducible, falling well within ±2-fold.

Structures can show the parent of a compound that is named as a salt.

T1 sequence (O00187 445-686 limits assumed): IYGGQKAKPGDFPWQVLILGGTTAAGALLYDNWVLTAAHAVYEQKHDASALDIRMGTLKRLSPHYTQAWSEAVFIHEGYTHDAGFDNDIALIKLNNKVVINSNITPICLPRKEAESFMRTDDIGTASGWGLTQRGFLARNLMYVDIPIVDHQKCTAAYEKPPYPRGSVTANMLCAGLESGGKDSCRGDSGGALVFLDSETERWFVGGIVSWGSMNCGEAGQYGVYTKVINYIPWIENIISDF
T1 sequence (O00187 298-444 partner limits assumed): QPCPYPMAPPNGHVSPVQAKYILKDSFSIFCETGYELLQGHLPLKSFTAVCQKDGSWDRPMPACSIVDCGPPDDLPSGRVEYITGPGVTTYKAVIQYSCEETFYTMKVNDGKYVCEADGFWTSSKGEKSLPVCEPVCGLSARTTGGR

In turn, `CSc1ncc(NCCc2ccccc2)c(=O)n1CC(=O)NCc1ccc2nc(N)[nH]c2c1` [Compound 5, N-((2-Amino-1H-Benzo[d]Imidazol-6-yl)Methyl)-2-(2-(Methylthio)-6-Oxo-5-(Phenethylamino)Pyrimidin-1(6H)-yl)Acetamide] displayed a Ki of less than 500 nM. For the compound `Cc1nc(N)ccc1CNC(=O)Cn1c(-c2ccccc2)c(Cl)nc(N2CCCC2)c1=O` [Compound 40, N-((6-Amino-2-methylpyridin-3-yl)methyl)-2-(5-chloro-2-oxo-6-phenyl-3-(pyrrolidin-1-yl)pyrazin-1(2H)-yl)acetamide], the Ki is less than 500 nM. `O=C(Cn1c(-c2cn[nH]c2)cnc(NCCc2ccccc2)c1=O)NCc1cc2cnccc2[nH]1` [Compound 102, N-((1H-Pyrrolo[3,2-c]pyridin-2-yl)methyl)-2-(2-oxo-3-(phenethylamino)-6-(1H-pyrazol-4-yl)pyrazin-1(2H)-yl)acetamide] gave a Ki of less than 500 nM.

The compound `CCCCOc1cnc(NCCc2ccccc2)c(=O)n1CC(=O)NCc1cc2cnccc2[nH]1` [Compound 162, N-((1H-Pyrrolo[3,2-c]Pyridin-2-yl)Methyl)-2-(6-Butoxy-2-Oxo-3-(Phenethylamino)Pyrazin-1(2H)-yl)Acetamide] registered a Ki of less than 500 nM. Compound `COCCCCNc1ncc(-c2cnn(C)c2)n(CC(=O)NCc2cc3cnccc3[nH]2)c1=O` [Compound 122, N-((1H-Pyrrolo[3,2-c]Pyridin-2-yl)Methyl)-2-(3-((4-Methoxybutyl)Amino)-6-(1-Methyl-1H-Pyrazol-4-yl)-2-Oxopyrazin-1(2H)-yl)Acetamide Trifluoroacetate] registered a Ki of less than 500 nM.

As for `CCOCCCNc1ncc(-c2cnn(C)c2)n(CC(=O)NCc2cc3cnccc3[nH]2)c1=O` [Compound 129, trifluoroacetate], the Ki was less than 500 nM.

Take `Cc1nn(C2CC2)cc1-c1cnc(NCCc2ccccc2)c(=O)n1CC(=O)NCc1cc2cnccc2[nH]1` [Compound 114, N-((1H-Pyrrolo[3,2-c]pyridin-2-yl)methyl)-2-(6-(1-cyclopropyl-3-methyl-1H-pyrazol-4-yl)-2-oxo-3-(phenethylamino)pyrazin-1(2H)-yl)acetamide]: the Ki is less than 500 nM. As to `O=C(Cn1c(-c2ccccc2)cnc(N2CCC3(CCNCC3)C2)c1=O)NCc1cc2cnccc2[nH]1` [Compound 54, N-((1H-Pyrrolo[3,2-c]Pyridin-2-yl)Methyl)-2-(2-Oxo-6-Phenyl-3-(2,8-Diazaspiro[4.5]Decan-2-yl)Pyrazin-1(2H)-yl)Acetamide Di-Trifluoroacetate], the Ki fell in the range of 500 to 2500 nM.

Compound `CC(C)Nc1cnc(N(CCc2ccccc2)CCc2ccccc2)c(=O)n1CC(=O)NCc1cc2cnccc2[nH]1` [Compound 159] came in with a Ki greater than 10000 nM. For `COc1ccc(C2(CNc3ncc(-c4ccccc4)n(CC(=O)NCc4cc5cnccc5[nH]4)c3=O)CC2)cc1` [Compound 61, N-((1H-Pyrrolo[3,2-c]pyridin-2-yl)methyl)-2-(3-(((1-(4-methoxyphenyl)cyclopropyl)methyl)amino)-2-oxo-6-phenylpyrazin-1(2H)-yl)acetamide trifluoroacetate], the Ki is less than 500 nM.

For the compound `Cn1cc(-c2cnc(NCC(F)(F)c3ccccc3)c(=O)n2CC(=O)NCc2cc3cnccc3[nH]2)cn1` [Compound 123, N-((1H-Pyrrolo[3,2-c]Pyridin-2-yl)Methyl)-2-(3-((2,2-Difluoro-2-Phenylethyl)Amino)-6-(1-Methyl-1H-Pyrazol-4-yl)-2-Oxopyrazin-1(2H)-yl)Acetamide Trifluoroacetate], the Ki was less than 500 nM.

Compound `O=C(Cn1c(-c2ccccc2)cnc(NCc2ccccc2)c1=O)NCc1cc2cnccc2[nH]1` [Compound 58, N-((1H-Pyrrolo[3,2-c]Pyridin-2-yl)Methyl)-2-(3-(Benzylamino)-2-Oxo-6-Phenylpyrazin-1(2H)-yl)Acetamide Trifluoroacetate] gave a Ki of less than 500 nM. To `O=C(Cn1c(-c2ccc(F)cc2)cnc(NCCc2ccccc2)c1=O)NCc1cc2cnccc2[nH]1` [Compound 106, N-((1H-Pyrrolo[3,2-c]pyridin-2-yl)methyl)-2-(6-(4-fluorophenyl)-2-oxo-3-(phenethylamino)pyrazin-1(2H)-yl)acetamide] belongs less than 500 nM; to `Cc1nc(N)ccc1CNC(=O)Cn1c(-c2ccccc2)c(Cl)nc(N(C)C)c1=O` [Compound 39, N-((6-Amino-2-methylpyridin-3-yl)methyl)-2-(5-chloro-3-(dimethylamino)-2-oxo-6-phenylpyrazin-1(2H)-yl)acetamide], 2500 to 10000 nM.

On to `COc1ccc(CNc2ncc(-c3ccccc3)n(CC(=O)NCc3cc4cnccc4[nH]3)c2=O)cc1` [Compound 150, N-((1H-Pyrrolo[3,2-c]pyridin-2-yl)methyl)-2-(3-((4-methoxybenzyl)amino)-2-oxo-6-phenylpyrazin-1(2H)-yl)acetamide], for which the Ki was less than 500 nM. `O=C(Cn1c(-c2ccc(C(F)(F)F)cc2)cnc(NCCc2ccccc2)c1=O)NCc1cc2cnccc2[nH]1` [Compound 21, N-((1H-Pyrrolo[3,2-c]Pyridin-2-yl)Methyl)-2-(2-Oxo-3-(Phenethylamino)-6-(4-(Trifluoromethyl)Phenyl)Pyrazin-1(2H)-yl)Acetamide, Trifluoroacetate] registered a Ki of less than 500 nM. `O=C(Cn1c(-c2ccccc2)cnc(NCC2(c3ccc(Cl)cc3)CC2)c1=O)NCc1cnc2c(c1)CNC2` [Compound 69, 2-(3-(((1-(4-Chlorophenyl)Cyclopropyl)Methyl)Amino)-2-Oxo-6-Phenylpyrazin-1(2H)-yl)-N-((6,7-Dihydro-5H-Pyrrolo[3,4-5]Pyridin-3-yl)Methyl)Acetamide Trifluoroacetate] came in with a Ki of less than 500 nM. For the compound `Cn1nccc1-c1cnc(NCCc2ccccc2)c(=O)n1CC(=O)NCc1cc2cnccc2[nH]1` [Compound 105, N-((1H-Pyrrolo[3,2-c]pyridin-2-yl)methyl)-2-(6-(1-methyl-1H-pyrazol-5-yl)-2-oxo-3-(phenethylamino)pyrazin-1(2H)-yl)acetamide], the Ki was less than 500 nM.

`O=C(Cn1c(-c2ccccc2)cnc(NCC2(c3ccccc3)CC2)c1=O)NCc1cc2cnccc2[nH]1` [Compound 52, N-((1H-Pyrrolo[3,2-c]pyridin-2-yl)methyl)-2-(2-oxo-6-phenyl-3-(((1-phenylcyclopropyl)methyl)amino)pyrazin-1(2H)-yl)acetamide trifluoroacetate]: the Ki is less than 500 nM. For the compound `O=C(Cn1c(-c2ccc(Cl)s2)cnc(NCCc2ccccc2)c1=O)NCc1cc2cnccc2[nH]1` [Compound 89, N-((1H-Pyrrolo[3,2-c]Pyridin-2-yl)Methyl)-2-(6-(5-Chlorothiophen-2-yl)-2-Oxo-3-(Phenethylamino)Pyrazin-1(2H)-yl)Acetamide], the Ki was less than 500 nM. For the compound `NC(=O)c1cccc(-c2cnc(NCCc3ccccc3)c(=O)n2CC(=O)NCc2ccc3nc(N)[nH]c3c2)c1` [Compound 15], the Ki is less than 500 nM.

With `Nc1nc2cc(CNC(=O)Cn3c(-c4ccccc4)cnc(NCCc4ccccc4)c3=O)ccc2[nH]1` [Compound 9, N-((2-Amino-1H-Benzo[d]Imidazol-5-yl)Methyl)-2-(2-Oxo-3-(Phenethylamino)-6-Phenylpyrazin-1(2H)-yl)Acetamide], the Ki is less than 500 nM. On to `Cc1nc(N)ccc1CNC(=O)Cn1c(-c2ccccc2)cnc(N2CCCC2)c1=O` [Compound 43, N-((6-Amino-2-Methylpyridin-3-yl)Methyl)-2-(2-Oxo-6-Phenyl-3-(Pyrrolidin-1-yl)Pyrazin-1(2H)-yl)Acetamide], for which the Ki was less than 500 nM. The result for `Cc1ncc(NCCc2ccccc2)c(=O)n1CC(=O)NCc1ccc2nc(N)[nH]c2c1` [Compound 3, N-((2-Amino-1H-benzo[d]imidazol-6-yl)methyl)-2-(2-methyl-6-oxo-5-(phenethylamino)pyrimidin-1(6H)-yl)acetamide trifluoroacetate] reads less than 500 nM; that for `Cc1cc2[nH]c(CNC(=O)Cn3c(-c4ccccc4)cnc(NC4(c5ccccc5)CC4)c3=O)cc2cn1` [Compound 76, N-((6-Methyl-1H-pyrrolo[3,2-c]pyridin-2-yl)methyl)-2-(2-oxo-6-phenyl-3-((1-phenylcyclopropyl)amino)pyrazin-1(2H)-yl)acetamide trifluoroacetate], less than 500 nM; that for `Cc1nc(N)ccc1CNC(=O)Cn1c(-c2ccc(Cl)cc2)cnc(NCCc2ccccc2)c1=O` [Compound 17, N-((6-Amino-2-Methylpyridin-3-yl)Methyl)-2-(6-(4-Chlorophenyl)-2-Oxo-3-(Phenethylamino)Pyrazin-1(2H)-yl) Acetamide, Trifluoroacetate], less than 500 nM. For `O=C(Cn1c(-c2cnn(C3CCC3)c2)cnc(NCCc2ccccc2)c1=O)NCc1cc2cnccc2[nH]1` [Compound 110, N-((1H-Pyrrolo[3,2-c]pyridin-2-yl)methyl)-2-(6-(1-cyclobutyl-1H-pyrazol-4-yl)-2-oxo-3-(phenethylamino)pyrazin-1(2H)-yl)acetamide], the Ki is less than 500 nM.

The compound `Cn1cc(-c2cnc(NCCc3ccccc3)c(=O)n2CC(=O)NCc2cnc3scc(Cl)c3c2)cn1` [Compound 82] displayed a Ki of 2500 to 10000 nM.
